Here are results for 6 compounds from article PMC11678162 (Pharmaceutics, 2024).

The subject of data set [1] is human peripheral blood mononuclear cells (PBMC). Put plainly: Cytotoxicity, resazurin assay. As to conditions: RPMI-1640 + 10% FBS, 24 h of incubation. The class given is cell-based. The procedure: The cytotoxic effect of the peptides was tested on human peripheral blood mononuclear cells (PBMC) using the resazurin assay. To perform the analysis, double serial dilutions of the studied peptides were performed in RPMI-1640 nutrient medium supplemented with 10% FBS in sterile 96-well flat-bottom polystyrene microplates (Nest, Wuxi, Jiangsu, China). Next, an equal volume of RPMI medium containing a suspension of freshly isolated PBMC was added to the peptide solution to a total volume of 100 μL and a cell concentration of 5 × 10^4 per well. The plates were incubated for 20 h in a CO2 incubator (5% CO2, 37 °C) and then 5 µL of resazurin solution was added at a concentration of 0.1 mg/mL, after which the incubation was continued for 4 h. The fluorescence of the formed resorufin was measured using an AF2200 microplate reader (Eppendorf, Germany) using the following channel: λExc = 535 nm; λem = 595 nm. The fluorescence signal in the wells containing cells cultured without peptides was taken as a 100% cell viability. Wells containing no cells were used as a negative control. Experimental data were obtained in two independent experiments performed in triplicate.

The test system of data set [2] is freshly isolated human erythrocytes (hRBCs). Description: Hemolysis (hemoglobin release assay). The class given is cell-based. The conditions noted are these: 4% hRBCs, 1.5 h of incubation. The procedure: Hemolytic activity was determined using freshly isolated human erythrocytes (hRBCs) according to a previously published method. Isotonic phosphate buffer (PBS) and 0.1% Triton X-100 were used as controls for the absence of lysis and complete disintegration of hRBCs, respectively.

Data set [3] in a line: Stability in serum. The conditions noted are these: 37 °C. The class given is in vitro ADME, human. The procedure: The serum stability of DsGom was determined in 25% fresh human serum in PBS (pH 7.4), as described previously. Briefly, 20 μL of aqueous peptide stock solution (5 mg/mL) was added to 480 μL of serum solution and incubated for 0, 2, 8, and 24 h at 37 °C. After incubation, serum proteins were selectively precipitated from the mixture by adding 10% TFA in the presence of 3.75 M of urea. Subsequently, the samples were stored at 0 °C for 30 min and centrifuged at 30,000× g for 10 min. Equal volumes of supernatants after serum protein precipitation were analyzed by analytical HPLC (Symmetry 300 C18 column, Waters, Milford, MA, USA) and MALDI-TOF MS. The amount of the intact peptide was estimated from the corresponding peak area on the HPLC chromatogram. For each peptide, two independent experiments were performed in triplicate. The comparison of the results and statistical processing were performed using GraphPad Prism 6.0 (GraphPad Software, Boston, MA, USA).

Data set [4] is described as follows: 25% fresh human serum in PBS (pH 7.4). As to conditions: 37 °C, up to 24 h.
A short description of data set [5]: serum. As to conditions: cited from earlier work.

Bridge positions count the residues as written; N and C are the ends. Square brackets hold non-standard residues; d marks the D form. Peptide text beside a SMILES is read from it. pGlu = O=C1CC[C@@H](C(=O)O)N1 Bounds are passed on as bounds.

Consider `CC(C)[C@@H]1NC(=O)[C@@H]2CSSC[C@H](NC(=O)[C@H](C(C)C)NC(=O)[C@H](CCCNC(=N)N)NC(=O)[C@H](CCCNC(=N)N)NC(=O)[C@@H](NC(=O)[C@@H](N)CCCNC(=N)N)CSSC[C@@H](C(=O)O)NC(=O)[C@H](Cc3ccc(O)cc3)NC(=O)[C@H](CCC(N)=O)NC1=O)C(=O)N[C@@H](Cc1ccc(O)cc1)C(=O)N[C@@H](CCCCN)C(=O)N[C@@H](CCCCN)C(=O)N[C@@H](Cc1c[nH]cn1)C(=O)N2` [DS5] (H-RCRRVCYKKHCVQYC-OH; disulfide 2-15, 6-11), for which the “cytotoxic effects on PBMC (in words)” value in data set [1] was “significantly enhanced cytotoxic effects on PBMC”.
On the same count and under the same terms, with `CC(C)[C@@H]1NC(=O)[C@@H]2CSSC[C@H](NC(=O)[C@H](C(C)C)NC(=O)[C@H](CCCNC(=N)N)NC(=O)[C@H](CCCNC(=N)N)NC(=O)[C@@H](NC(=O)[C@@H](N)CCCNC(=N)N)CSSC[C@@H](C(=O)O)NC(=O)[C@H](Cc3ccc(O)cc3)NC(=O)[C@H](CCC(N)=O)NC1=O)C(=O)N[C@@H](Cc1ccc(O)cc1)C(=O)N[C@@H](CCCCN)C(=O)N[C@@H](CCCCN)C(=O)N[C@@H](CCCNC(=N)N)C(=O)N2` [DS7] (H-RCRRVCYKKRCVQYC-OH; disulfide 2-15, 6-11) the entry was “significantly enhanced cytotoxic effects on PBMC”.
Regarding `CC(C)[C@@H]1NC(=O)[C@@H]2CSSC[C@H](NC(=O)[C@H](C(C)C)NC(=O)[C@H](CCCNC(=N)N)NC(=O)[C@H](Cc3c[nH]cn3)NC(=O)[C@@H](NC(=O)[C@@H](N)CCCNC(=N)N)CSSC[C@@H](C(=O)O)NC(=O)[C@H](Cc3ccc(O)cc3)NC(=O)[C@H](CCC(N)=O)NC1=O)C(=O)N[C@@H](Cc1ccc(O)cc1)C(=O)N[C@@H](Cc1c[nH]cn1)C(=O)N[C@@H](CCCCN)C(=O)N[C@@H](Cc1c[nH]cn1)C(=O)N2` [DsGom] (H-RCHRVCYHKHCVQYC-OH; disulfide 2-15, 6-11), in data set [2] (128 µM peptide, 0.1% Triton X-100 = complete lysis, two independent experiments), the grade of hemolysis is recorded as ~ 1%. Besides, the fraction remaining at 24 h, 0.2 mg/mL in data set [3] (25% fresh human serum in PBS (pH 7.4), 20 μL of 5 mg/mL stock in 480 μL, TFA/urea precipitation, HPLC peak area (0 h = 100%), two independent experiments in triplicate, read-out: initial amount of peptide remaining intact) was not below 90%. Further, the “percentage of the form without the N-terminal arginine residue in the main peak” value in data set [3] (25% human serum in PBS, 24 h, MALDI MS of the HPLC fraction) is recorded as less than 10%.
Take `CC(C)C[C@@H]1NC(=O)[C@H](CCCNC(=N)N)NC(=O)[C@H](CCCNC(=N)N)NC(=O)[C@@H](NC(=O)[C@@H]2CCC(=O)N2)CSSC[C@@H](C(=O)N[C@@H](CO)C(=O)NCC(=O)N[C@@H](CCCNC(=N)N)C(=O)O)NC(=O)[C@H](Cc2ccc(O)cc2)NC(=O)[C@H]([C@@H](C)O)NC(=O)[C@H](CC(C)C)NC(=O)[C@@H]2CSSC[C@H](NC1=O)C(=O)N[C@@H](Cc1ccccc1)C(=O)N[C@@H](CCCNC(=N)N)C(=O)N[C@@H](CC(N)=O)C(=O)N[C@@H](CCCNC(=N)N)C(=O)N2` [Gom-2] ([pGlu]CRRLCFRNRCLTYCSGR-OH; disulfide 2-15, 6-11): the “hemolytic activity (in words)” value in data set [2] (compared to gomesin) is “significantly higher grade of hemolytic activity”.
As to RCHRVCYHKHCVQYC, the cleaved bond result in data set [4] was “Arg1-C2, minor, 8 h”.
Take ZCRRLCYKQRCVTYCRGR: in data set [5], the not cleaved entry is listed as “quite stable in the presence of serum enzymes”.

A word on the amount remaining: it is what is left of the initial amount, in per cent.
